*1 amine or outer side, *2 acyl side, *3 side chain or, on linkers, in order; H or OH if unused. Where a SMILES comes first, the peptide text is derived from it. Bridges are numbered along the chain shown (N, C = ends). [ ]: non-standard residue; d: D form. ξ: configuration not given here. X3 = O=C(O)CCCCCCCCCCCCCCCCC(=O)NC(CCC(=O)NCCOCCOCC(=O)NCCCCCCNC(=O)C(CCCCNC(=O)CCN1C(=O)CC([*:1])C1=O)NC(=O)CCN1C(=O)CC([*:2])C1=O)C(=O)O; Thr(3ξ) = CC(O)[C@H](N)C(=O)O; Aib = CC(C)(N)C(=O)O
How the values were obtained:
[1] = target: T1, Glucagon-like peptide 1 receptor (Homo sapiens, UniProt P43220); assay: Agonist activity at human GLP-1R expressed in HEK293 cells assessed as stimulation of cAMP accumulation incubated for 20 mins in presence of 0% HSA; type: functional, cell-based
T1 sequence (P43220 whole entry): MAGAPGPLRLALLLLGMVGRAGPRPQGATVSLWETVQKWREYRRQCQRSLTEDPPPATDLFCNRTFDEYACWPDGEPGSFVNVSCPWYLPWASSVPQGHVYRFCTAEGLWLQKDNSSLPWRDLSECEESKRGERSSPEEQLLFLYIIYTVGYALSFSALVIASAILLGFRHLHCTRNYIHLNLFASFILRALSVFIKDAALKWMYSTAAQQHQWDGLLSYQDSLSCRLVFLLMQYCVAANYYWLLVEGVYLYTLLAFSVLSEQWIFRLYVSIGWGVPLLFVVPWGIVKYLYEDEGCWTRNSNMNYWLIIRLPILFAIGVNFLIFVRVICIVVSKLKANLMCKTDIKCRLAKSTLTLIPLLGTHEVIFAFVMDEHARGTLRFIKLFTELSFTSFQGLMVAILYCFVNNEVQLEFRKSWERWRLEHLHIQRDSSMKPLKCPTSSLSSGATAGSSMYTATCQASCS

[2] = target: T1, Glucagon-like peptide 1 receptor; assay: Agonist activity at human GLP-1R expressed in HEK293 cells assessed as stimulation of cAMP accumulation incubated for 20 mins in presence of 4.4% HSA; type: functional, cell-based
[3] = target: T1, Glucagon-like peptide 1 receptor; assay: Ratio of EC50 for agonist activity at human GLP-1R expressed in HEK293 cells in presence of 4.4% HSA to EC50 for agonist activity at human GLP-1R expressed in HEK293 cells in presence of 0% HSA; type: cell-based
[4] = target: T1, Glucagon-like peptide 1 receptor; assay: Agonist activity at human GLP-1R expressed in HEK293 cells assessed as stimulation of cAMP accumulation incubated for 20 mins; type: functional, cell-based

“H-H[Aib]EGTYTNDVTEYCEEEAAKCFIEWLIKGKPSSGAPPSKKKKKK-NH2 (linker 14-21 via X3)” was tested, and the EC50 [1] was 0.16 nM, the EC50 [2] was 6.5 nM and the Ratio EC50 [3] was 40.6.
Work on CC[C@H](C)[C@@H]1NC(=O)[C@H](CC(C)C)NC(=O)[C@H](Cc2c[nH]c3ccccc23)NC(=O)[C@H](CCC(=O)O)NC(=O)[C@H]([C@@H](C)CC)NC(=O)[C@H](Cc2ccccc2)NC(=O)[C@@H](NC(=O)[C@H](CCCCN)NC(=O)[C@H](C)NC(=O)[C@H](C)NC(=O)[C@H](CCC(=O)O)NC(=O)[C@H](CCC(=O)O)NC(=O)[C@H](CCC(=O)O)NC(=O)[C@H](CC(C)C)NC(=O)[C@H](Cc2ccc(O)cc2)NC(=O)[C@H](CCC(=O)O)NC(=O)[C@@H](NC(=O)[C@@H](NC(=O)[C@H](CC(=O)O)NC(=O)[C@H](CC(N)=O)NC(=O)[C@@H](NC(=O)[C@H](Cc2ccc(O)cc2)NC(=O)[C@@H](NC(=O)CNC(=O)[C@H](CCC(=O)O)NC(=O)C(C)(C)NC(=O)[C@@H](N)Cc2c[nH]cn2)[C@@H](C)O)[C@@H](C)O)C(C)C)[C@@H](C)O)CSC2CC(=O)N(CCC(=O)NC(C(=O)NCCCCCCNC(=O)COCCOCCNC(=O)COCCOCCNC(=O)CCC(NC(=O)CCCCCCCCCCCCCCCCC(=O)O)C(=O)O)CCCCNC(=O)CCN3C(=O)CC(SC[C@@H](C(=O)NCC(=O)N[C@@H](CCCCN)C(N)=O)NC1=O)C3=O)C2=O (some centres not stated) (HELM PEPTIDE1{H.[Aib].E.G.T.Y.T.N.D.V.T.E.Y.L.E.E.E.A.A.K.C.F.I.E.W.L.I.C.G.K.[am]}|CHEM1{[O=C(O)CCCCCCCCCCCCCCCCC(=O)NC(CCC(=O)NCCOCCOCC(=O)NCCOCCOCC(=O)NCCCCCCNC(=O)C(CCCCNC(=O)CCN1C(=O)CC([*:2])C1=O)NC(=O)CCN1C(=O)CC([*:1])C1=O)C(=O)O]}$PEPTIDE1,CHEM1,21:R3-1:R1|PEPTIDE1,CHEM1,28:R3-1:R2$$$V2.0) yielded an EC50 [1] of 0.19 nM, an EC50 [2] of 18.2 nM and a Ratio EC50 [3] of 95.8.
Work on CC[C@H](C)[C@H](NC(=O)[C@H](CC(C)C)NC(=O)[C@H](Cc1c[nH]c2ccccc12)NC(=O)[C@H](CCC(=O)O)NC(=O)[C@H](CS)NC(=O)[C@H](Cc1ccccc1)NC(=O)[C@H](CCC(=O)O)NC(=O)[C@H](CCCCN)NC(=O)[C@H](C)NC(=O)[C@H](C)NC(=O)[C@H](CCC(=O)O)NC(=O)[C@H](CS)NC(=O)[C@H](CCC(=O)O)NC(=O)[C@H](CC(C)C)NC(=O)[C@H](Cc1ccc(O)cc1)NC(=O)[C@H](CCC(=O)O)NC(=O)[C@@H](NC(=O)[C@@H](NC(=O)[C@H](CC(=O)O)NC(=O)[C@H](CC(N)=O)NC(=O)[C@@H](NC(=O)[C@H](Cc1ccc(O)cc1)NC(=O)[C@@H](NC(=O)CNC(=O)[C@H](CCC(=O)O)NC(=O)C(C)(C)NC(=O)[C@@H](N)Cc1c[nH]cn1)[C@@H](C)O)[C@@H](C)O)C(C)C)[C@@H](C)O)C(=O)N[C@@H](CCCCN)C(=O)NCC(=O)N[C@@H](CCCCN)C(N)=O (HELM PEPTIDE1{H.[Aib].E.G.T.Y.T.N.D.V.T.E.Y.L.E.C.E.A.A.K.E.F.C.E.W.L.I.K.G.K.[am]}$$$$V2.0) yielded an EC50 [4] of 0.73 nM.
Work on “H-H[Aib]EGTYTNDVCEYLEEECAKEFIEWLIKGKPSSGAPPSKKKKKK-NH2 (cysteines drawn unpaired)” yielded an EC50 [4] of 0.13 nM.
Compound “H-H[Aib]EG[Thr(3ξ)]YTNDVTEYLEEEAAKEFCEWLIKGCPSSGAPPSKKKKKK-NH2 (cysteines drawn unpaired)” has an EC50 [4] of 0.23 nM.
Compound “H-H[Aib]EGTYTNDVTECLEEEAACEFIEWLIKGKPSSGAPPSKKKKKK-NH2 (cysteines drawn unpaired)” has an EC50 [4] of 0.16 nM.
Compound CC[C@H](C)[C@H](NC(=O)[C@H](Cc1ccccc1)NC(=O)[C@H](CCC(=O)O)NC(=O)[C@H](CS)NC(=O)[C@H](C)NC(=O)[C@H](C)NC(=O)[C@H](CCC(=O)O)NC(=O)[C@H](CCC(=O)O)NC(=O)[C@H](CCC(=O)O)NC(=O)[C@H](CC(C)C)NC(=O)[C@H](Cc1ccc(O)cc1)NC(=O)[C@H](CCC(=O)O)NC(=O)[C@@H](NC(=O)[C@@H](NC(=O)[C@H](CC(=O)O)NC(=O)[C@H](CC(N)=O)NC(=O)[C@@H](NC(=O)[C@H](Cc1ccc(O)cc1)NC(=O)[C@@H](NC(=O)CNC(=O)[C@H](CCC(=O)O)NC(=O)C(C)(C)NC(=O)[C@@H](N)Cc1c[nH]cn1)[C@@H](C)O)[C@@H](C)O)C(C)C)[C@@H](C)O)C(=O)N[C@@H](CCC(=O)O)C(=O)N[C@@H](Cc1c[nH]c2ccccc12)C(=O)N[C@@H](CC(C)C)C(=O)N[C@@H](CS)C(=O)N[C@@H](CCCCN)C(=O)NCC(=O)N[C@@H](CCCCN)C(N)=O (HELM PEPTIDE1{H.[Aib].E.G.T.Y.T.N.D.V.T.E.Y.L.E.E.E.A.A.C.E.F.I.E.W.L.C.K.G.K.[am]}$$$$V2.0) has an EC50 [4] of 0.76 nM.
For “H-H[Aib]EGTYTNDVTEYLCEEAAKECIEWLIKGKPSSGAPPSKKKKKK-NH2 (cysteines drawn unpaired)”, the EC50 [4] was 0.17 nM.
CC[C@H](C)[C@H](NC(=O)[C@H](CC(C)C)NC(=O)[C@H](Cc1c[nH]c2ccccc12)NC(=O)[C@H](CCC(=O)O)NC(=O)[C@@H](NC(=O)[C@H](Cc1ccccc1)NC(=O)[C@H](CCC(=O)O)NC(=O)[C@H](CS)NC(=O)[C@H](C)NC(=O)[C@H](C)NC(=O)[C@H](CCC(=O)O)NC(=O)[C@H](CCC(=O)O)NC(=O)[C@H](CCC(=O)O)NC(=O)[C@H](CC(C)C)NC(=O)[C@H](CS)NC(=O)[C@H](CCC(=O)O)NC(=O)[C@@H](NC(=O)[C@@H](NC(=O)[C@H](CC(=O)O)NC(=O)[C@H](CC(N)=O)NC(=O)[C@@H](NC(=O)[C@H](Cc1ccc(O)cc1)NC(=O)[C@@H](NC(=O)CNC(=O)[C@H](CCC(=O)O)NC(=O)C(C)(C)NC(=O)[C@@H](N)Cc1c[nH]cn1)[C@@H](C)O)[C@@H](C)O)C(C)C)[C@@H](C)O)[C@@H](C)CC)C(=O)N[C@@H](CCCCN)C(=O)NCC(=O)N[C@@H](CCCCN)C(N)=O (HELM PEPTIDE1{H.[Aib].E.G.T.Y.T.N.D.V.T.E.C.L.E.E.E.A.A.C.E.F.I.E.W.L.I.K.G.K.[am]}$$$$V2.0) gave an EC50 [4] of 0.49 nM.
In the case of CC[C@H](C)[C@H](NC(=O)[C@H](CS)NC(=O)[C@H](Cc1c[nH]c2ccccc12)NC(=O)[C@H](CCC(=O)O)NC(=O)[C@@H](NC(=O)[C@H](Cc1ccccc1)NC(=O)[C@H](CCC(=O)O)NC(=O)[C@H](CCCCN)NC(=O)[C@H](CS)NC(=O)[C@H](C)NC(=O)[C@H](CCC(=O)O)NC(=O)[C@H](CCC(=O)O)NC(=O)[C@H](CCC(=O)O)NC(=O)[C@H](CC(C)C)NC(=O)[C@H](Cc1ccc(O)cc1)NC(=O)[C@H](CCC(=O)O)NC(=O)[C@@H](NC(=O)[C@@H](NC(=O)[C@H](CC(=O)O)NC(=O)[C@H](CC(N)=O)NC(=O)[C@@H](NC(=O)[C@H](Cc1ccc(O)cc1)NC(=O)[C@@H](NC(=O)CNC(=O)[C@H](CCC(=O)O)NC(=O)C(C)(C)NC(=O)[C@@H](N)Cc1c[nH]cn1)[C@@H](C)O)[C@@H](C)O)C(C)C)[C@@H](C)O)[C@@H](C)CC)C(=O)N[C@@H](CCCCN)C(=O)NCC(=O)N[C@@H](CCCCN)C(=O)N1CCC[C@H]1C(=O)N[C@@H](CO)C(=O)N[C@@H](CO)C(=O)NCC(=O)N[C@@H](C)C(=O)N1CCC[C@H]1C(=O)N1CCC[C@H]1C(=O)N1CCC[C@H]1C(=O)N[C@@H](CO)C(N)=O (HELM PEPTIDE1{H.[Aib].E.G.T.Y.T.N.D.V.T.E.Y.L.E.E.E.A.C.K.E.F.I.E.W.C.I.K.G.K.P.S.S.G.A.P.P.P.S.[am]}$$$$V2.0), the EC50 [4] is reported as 0.24 nM.
For CC[C@H](C)[C@H](NC(=O)[C@H](CC(C)C)NC(=O)[C@H](Cc1c[nH]c2ccccc12)NC(=O)[C@H](CCC(=O)O)NC(=O)[C@@H](NC(=O)[C@H](CS)NC(=O)[C@H](CCC(=O)O)NC(=O)[C@H](CCCCN)NC(=O)[C@H](C)NC(=O)[C@H](C)NC(=O)[C@H](CCC(=O)O)NC(=O)[C@H](CCC(=O)O)NC(=O)[C@H](CS)NC(=O)[C@H](CC(C)C)NC(=O)[C@H](Cc1ccc(O)cc1)NC(=O)[C@H](CCC(=O)O)NC(=O)[C@@H](NC(=O)[C@@H](NC(=O)[C@H](CC(=O)O)NC(=O)[C@H](CC(N)=O)NC(=O)[C@@H](NC(=O)[C@H](Cc1ccc(O)cc1)NC(=O)[C@@H](NC(=O)CNC(=O)[C@H](CCC(=O)O)NC(=O)C(C)(C)NC(=O)[C@@H](N)Cc1c[nH]cn1)[C@@H](C)O)[C@@H](C)O)C(C)C)[C@@H](C)O)[C@@H](C)CC)C(=O)N[C@@H](CCCCN)C(=O)NCC(=O)N[C@@H](CCCCN)C(=O)N1CCC[C@H]1C(=O)N[C@@H](CO)C(=O)N[C@@H](CO)C(=O)NCC(=O)N[C@@H](C)C(=O)N1CCC[C@H]1C(=O)N1CCC[C@H]1C(=O)N1CCC[C@H]1C(=O)N[C@@H](CO)C(N)=O (HELM PEPTIDE1{H.[Aib].E.G.T.Y.T.N.D.V.T.E.Y.L.C.E.E.A.A.K.E.C.I.E.W.L.I.K.G.K.P.S.S.G.A.P.P.P.S.[am]}$$$$V2.0), the EC50 [4] was 0.22 nM.
“H-H[Aib]EGTYTNDVTEYLEEEAAKECIEWLIKCKPSSGAPPSKKKKKK-NH2 (cysteines drawn unpaired)” was tested, and the EC50 [4] was 0.13 nM.
Work on CC[C@H](C)[C@H](NC(=O)[C@H](CC(C)C)NC(=O)[C@H](Cc1c[nH]c2ccccc12)NC(=O)[C@H](CCC(=O)O)NC(=O)[C@@H](NC(=O)[C@H](CS)NC(=O)[C@H](CCC(=O)O)NC(=O)[C@H](CCCCN)NC(=O)[C@H](C)NC(=O)[C@H](C)NC(=O)[C@H](CCC(=O)O)NC(=O)[C@H](CCC(=O)O)NC(=O)[C@H](CS)NC(=O)[C@H](CC(C)C)NC(=O)[C@H](Cc1ccc(O)cc1)NC(=O)[C@H](CCC(=O)O)NC(=O)[C@@H](NC(=O)[C@@H](NC(=O)[C@H](CC(=O)O)NC(=O)[C@H](CC(N)=O)NC(=O)[C@@H](NC(=O)[C@H](Cc1ccc(O)cc1)NC(=O)[C@@H](NC(=O)CNC(=O)[C@H](CCC(=O)O)NC(=O)C(C)(C)NC(=O)[C@@H](N)Cc1c[nH]cn1)[C@@H](C)O)[C@@H](C)O)C(C)C)[C@@H](C)O)[C@@H](C)CC)C(=O)N[C@@H](CCCCN)C(=O)NCC(=O)N[C@@H](CCCCN)C(N)=O (HELM PEPTIDE1{H.[Aib].E.G.T.Y.T.N.D.V.T.E.Y.L.C.E.E.A.A.K.E.C.I.E.W.L.I.K.G.K.[am]}$$$$V2.0) yielded an EC50 [4] of 0.59 nM.
